Measured values from ChEMBL document CHEMBL4190400, “Identification of Potent Ebola Virus Entry Inhibitors with Suitable Properties for in Vivo Studies” (J Med Chem, 2018).
Values after ≈ are worked out from the molar mass of the structure shown.

Columns and labels:
in vitro = conditions: mouse, plasma
[1] = Half life in mouse liver microsomes at 1 uM after 60 mins in presence of NADPH and ritonavir by LC-MS/MS analysis; assay type: ADME, microsome; conditions: with ritonavir (concentration not stated)
[2] = AUClast in mouse at 50 mg/kg, po administered via gavage cotreated with 50 mg/kg ritonavir; assay type: ADME, organism-based; parameters: dose 50 mg/kg, route oral, time 0 - last; conditions: in vivo
physchem = conditions: phosphate buffered saline, pH 7.4
Ebolavirus [3] = experiment: (§1) Antiviral activity against VSV pseudotyped Ebolavirus expressing M-GFP infected in African green monkey Vero E6 cells assessed as inhibition of viral infection pre-incubated for 2 hrs before infection and measured after 8 to 12 hrs in presence of 10% FBS and 50% NHS by fluorescence microscopic method; assay type: functional; conditions: Orthoebolavirus, Vero C1008
[4] = Clearance in mouse at 50 mg/kg, po administered via gavage cotreated with 50 mg/kg ritonavir; assay type: ADME, organism-based; conditions: in vivo
Ebolavirus [5] = experiment: as §1, with “against recombinant” for “against”, “of” for “of 10% FBS and”; assay type: functional, Vero C1008
[6] = Cmax in mouse at 50 mg/kg, po administered via gavage cotreated with 50 mg/kg ritonavir; assay type: ADME, organism-based; parameters: dose 50 mg/kg, route oral; conditions: in vivo
[7] = Concentration in mouse plasma at 50 mg/kg, po administered via gavage cotreated with 50 mg/kg ritonavir; assay type: ADME, organism-based; conditions: in vivo
[8] = Stability of the compound in mouse plasma at 10 uM assessed as compound remaining after 4 hrs by LC-MS/MS analysis; assay type: ADME, cell-free; conditions: read-out: Stability
[9] = Half life in mouse at 50 mg/kg, po administered via gavage cotreated with 50 mg/kg ritonavir; assay type: ADME, organism-based; conditions: in vivo
[10] = Tmax in mouse at 50 mg/kg, po administered via gavage cotreated with 50 mg/kg ritonavir; assay type: ADME, organism-based; conditions: in vivo
Ebolavirus [11] = experiment: Antiviral activity against Ebolavirus isolate Kikwit infected in human HeLa cells assessed as inhibition of viral infection pretreated for 2 hrs before viral infection and measured after 48 hrs by EboV GP immunostaining based method; assay type: functional, cell-based; conditions: Orthoebolavirus
Ebolavirus [12] = experiment: Antiviral activity against Ebola virus - Mayinga, Zaire, 1976 infected in human HeLa cells assessed as inhibition of viral infection pretreated for 2 hrs before viral infection and measured after 48 hrs by EboV GP immunostaining based method; assay type: functional, cell-based; conditions: Orthoebolavirus
Ebolavirus [13] = experiment: Antiviral activity against Ebolavirus isolate Makona infected in human HeLa cells assessed as inhibition of viral infection pretreated for 2 hrs before viral infection and measured after 48 hrs by EboV GP immunostaining based method; assay type: functional, cell-based; conditions: Orthoebolavirus
in vivo = conditions: mouse, po, 25 mg/kg
[14] = Clearance in mouse at 25 mg/kg, po administered via gavage; assay type: ADME, organism-based; conditions: in vivo
[15] = Cmax in mouse at 25 mg/kg, po administered via gavage cotreated with 20 mg/kg ritonavir; assay type: ADME, organism-based; parameters: dose 25 mg/kg, route oral; conditions: in vivo
[16] = Clearance in mouse at 25 mg/kg, po administered via gavage cotreated with 20 mg/kg ritonavir; assay type: ADME, organism-based; conditions: in vivo
[17] = AUClast in mouse at 25 mg/kg, po administered via gavage cotreated with 20 mg/kg ritonavir; assay type: ADME, organism-based; parameters: dose 25 mg/kg, route oral, time 0 - last; conditions: in vivo
Ebolavirus [18] = experiment: Antiviral activity against VSV pseudotyped Ebolavirus expressing M-GFP infected in African green monkey Vero E6 cells assessed as inhibition of viral infection pre-incubated for 2 hrs before infection and measured after 8 to 12 hrs by fluorescence microscopic method; assay type: functional, Vero C1008; conditions: Orthoebolavirus, Vero C1008
[19] = Concentration in mouse plasma at 25 mg/kg, po administered via gavage cotreated with 20 mg/kg ritonavir; assay type: ADME, organism-based; conditions: in vivo
[20] = Concentration in mouse plasma at 25 mg/kg, po administered via gavage after 12 hrs; assay type: ADME, organism-based
[21] = Half life in mouse liver microsomes at 1 uM after 60 mins in presence of NADPH by LC-MS/MS analysis; assay type: ADME, microsome
[22] = Half life in human liver microsomes at 1 uM after 60 mins in presence of NADPH by LC-MS/MS analysis; assay type: ADME, microsome

Row | Structure (SMILES) | fraction unbound at 6 h (in vitro) | half-life at 1 µM [1] [h] | AUC(0-t) [2] [µM·h] | solubility kinetic (physchem) [µM] | IC50 (Ebolavirus [3]) [nM] | CL/F [4] [mL/min/kg] | Cmax [6] [µM] | concentration [7] [µM] | remaining at 4 h, 10 µM [8] [%] | half-life [9] [h] | Tmax [10] [h] | EC50 (Ebolavirus [11]) [nM] | EC50 (Ebolavirus [12]) [nM] | EC50 (Ebolavirus [13]) [nM] | IC50 (Ebolavirus [5]; Orthoebolavirus, Vero C1008) [nM] | other results
1 | CS(=O)(=O)c1ccc(COc2ccc(Cl)cc2CN2CCN(C(=O)CNC(=O)C3CC34CCC(F)(F)CC4)CC2)cc1 (stereo in doubt; 3-22) | 0.024 | > 2 | 116 | 10 (≈ 6.24 µg/mL) | 93 | 11.9 | 10.4 | 4.7 | 69 | 3.2 | 4 |  |  |  |  | IC50 (Ebolavirus [5]; vero c1008): 19 nM
2 | CS(=O)(=O)c1ccc(COc2ccc(Cl)cc2CN2CCN(C(=O)CNC(=O)C3CC34CCC(F)(F)CC4)CC2)cc1 (racemic) |  |  |  |  |  |  |  |  |  |  |  | 420 | 210 | 140 | 35 | 
3 | [2H]C([2H])(c1cc(Cl)ccc1N)N1CCN(C(=O)CNC(=O)CC2CCC(F)(F)CC2)CC1 |  | > 2 |  |  |  |  |  |  | 86 |  |  |  |  |  | 1200 | half-life (in vivo): 2.3 h; CL/F [14]: 49 mL/min/kg; Cmax [15]: 12 µM; CL/F [16]: 12.3 mL/min/kg; AUC(0-t) [17]: 76.8 µM·h; IC50 (Ebolavirus [18]): 347 nM; concentration [19]: 1.7 µM; concentration at 12 h [20]: 0.2 µM
4 | CS(=O)(=O)c1ccc(CNc2ccc(Cl)cc2CN2CCN(C(=O)CNC(=O)C3CC34CCC(F)(F)CC4)CC2)cc1 (racemic) |  |  |  |  |  |  |  |  |  |  |  | 35 | 9 | 17 | 40 | 
5 | [2H]C([2H])(c1cc(Cl)ccc1NCc1ccc(S(C)(=O)=O)cc1)N1CCN(C(=O)CNC(=O)C2CC23CCC(F)(F)CC3)CC1 (single isomer, unassigned; (-)) | 0.002 | 1.45 | 108 | 4 (≈ 2.5 µg/mL) | 109 | 12.5 | 7.4 | 5.7 | 72 | 1.7 | 7.3 |  |  |  | 21 | half-life at 1 µM [21]: 2 min; half-life at 1 µM [22]: 1 min
6 | CS(=O)(=O)c1ccc(CNc2ccc(Cl)cc2CN2CCN(C(=O)CNC(=O)CC3CCC(F)(F)CC3)CC2)cc1 |  |  |  |  |  |  |  |  |  |  |  | 33 | 12 | 52 | 28 | 
